Assay results: publication PMC7173930, “EAT-18 is an essential auxiliary protein interacting with the non-alpha nAChR subunit EAT-2 to form a functional receptor” (PLoS Pathogens, 2020)
Where two headings read alike, the source gives them in different places.

What was measured:
[1] = tested on: nAChRs expressed in the pharynx of A. suum; assay: tissue or blood; type: cell-based; details: for % change in membrane conductance (δG) normalized to the ACh δG: normalized to 100 μM ACh (10 s), mean±SEM, n≥4; for normalized response (δG) to muscarinic agonists, control ACh = 100%: 100 μM, 10 s application, n=4; for normalized response (δG) to muscarinic agonists, control ACh = 100% / maximal response (δG) of ACh in the presence of antagonist: mean±SE; for Emax: Ascaris suum, read-out: % change in membrane conductance (δG) normalized to the ACh δG; for mode of antagonism of the pharyngeal ACh response / maximal response (δG) of ACh in the presence of antagonist: antagonist 10 μM; for mode of antagonism of the pharyngeal ACh response: ACh pEC50 unchanged, maximal response inhibited
Procedure: A. suum pharyngeal dissections and electrophysiology recordings were adapted from Martin [49]. Briefly, pharynx was dissected out from the head region of the worm and mounted on Sylgard (Sigma-Aldrich Inc., USA)—lined in a double jacketed bath chamber maintained at 28°C. The muscle layer surrounding the anterior 3rd of the pharynx was preserved for anchoring. The intestine attached to the posterior end of the pharynx was used for stretching and pinning down. The preparation was continuously perfused with calcium-free Ascaris Perienteric Fluid-Ringer (calcium-free APF-Ringer) composition (mM): NaCl 23, Na-acetate 110, KCl 24, MgCl2 11, glucose 11, and HEPES 5; NaOH or acetic acid was added to adjust the pH to 7.6. […] The rate of localized perfusion was 3.5–4 ml min^−1 through a 20-gauge needle, which was placed directly above the recording region of the pharynx. […] We used 3 M potassium acetate in our micropipettes to get the final resistances of 4–7 MΩ for the voltage sensing and 0.5–1 MΩ for the current injecting electrode for current-clamp recordings. The current-injecting electrode injected hyperpolarizing step currents of −1000 nA for 500 ms at 0.3 Hz.
We constructed the sigmoidal concentration-response plots by fitting the data by nonlinear regression to determine the pEC50 and the maximal response (Rmax). Extra sum of squares F-test was used to test statistical differences between pEC50, slope, and maximal response. The significance levels were set to P<0.05.
In applications containing arecoline and pilocarpine, we used mecamylamine, a nAChR antagonist (30µM) to inhibit nAChRs and to allow only mAChR activation.

[2] = tested on: A. suum muscarinic receptor; design: method as in earlier work; details: all used at 100 µM; ref 1 Kimber M.J. et al. Int J Parasitol 39: 1215-1222 (2009); cited from earlier work
[3] = target: T1, Cel-EAT-2 and Cel-EAT-18c nAChR (Caenorhabditis elegans, UniProt Q9U298); assay: Two-electrode voltage-clamp of Cel-EAT-2 + Cel-EAT-18c nAChR expressed in Xenopus oocytes; type: cell-based; details: for Emax at 100 µM: read-out: current response normalized to the control 100 μM ACh current (Imax); for Emax at 100 µM / current response normalized to the control 100 μM ACh current (Imax): agonist 100 μM, n≥6; for Emax at 100 µM / current response normalized to the control 100 μM ACh current (Imax) / Hill slope (nH): mean±SEM; for Hill slope (nH): agonist concentration-response; for EC50: read-out: pEC50 (converted)
T1 sequence (Q9U298 22-474): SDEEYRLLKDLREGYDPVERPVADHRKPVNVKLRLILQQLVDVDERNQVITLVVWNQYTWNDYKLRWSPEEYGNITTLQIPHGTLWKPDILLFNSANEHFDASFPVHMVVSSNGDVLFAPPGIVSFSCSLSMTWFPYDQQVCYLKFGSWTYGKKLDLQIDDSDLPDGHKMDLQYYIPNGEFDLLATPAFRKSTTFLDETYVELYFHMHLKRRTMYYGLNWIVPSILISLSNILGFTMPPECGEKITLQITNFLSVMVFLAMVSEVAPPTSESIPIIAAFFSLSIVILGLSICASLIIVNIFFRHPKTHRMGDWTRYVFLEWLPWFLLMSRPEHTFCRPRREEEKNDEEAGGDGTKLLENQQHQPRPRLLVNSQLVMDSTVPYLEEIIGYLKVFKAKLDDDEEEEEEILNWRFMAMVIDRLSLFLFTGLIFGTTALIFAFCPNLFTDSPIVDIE

Asu-EAT-2 nAChR = Asu-EAT-2 nAChR (Ascaris suum, UniProt F1L9Y6); assay: cell-based; type: cell-based, A. suum; details: for Emax: read-out: current response normalized to the control 100 μM ACh current
Asu-EAT-2 nAChR, sequence (F1L9Y6 entry or part of it): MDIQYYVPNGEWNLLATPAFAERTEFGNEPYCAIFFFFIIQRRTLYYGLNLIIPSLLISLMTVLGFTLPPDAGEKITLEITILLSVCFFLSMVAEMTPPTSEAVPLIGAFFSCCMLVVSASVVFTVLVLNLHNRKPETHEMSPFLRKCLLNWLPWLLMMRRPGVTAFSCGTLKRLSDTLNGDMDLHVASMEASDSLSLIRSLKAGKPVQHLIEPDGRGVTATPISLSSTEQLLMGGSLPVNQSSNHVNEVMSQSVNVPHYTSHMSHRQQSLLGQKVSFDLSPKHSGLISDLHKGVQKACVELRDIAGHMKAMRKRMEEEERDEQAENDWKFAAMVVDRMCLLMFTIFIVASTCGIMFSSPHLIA
Asu-EAT-2 nAChR, sequence (F1L1D9 entry or part of it, further chain): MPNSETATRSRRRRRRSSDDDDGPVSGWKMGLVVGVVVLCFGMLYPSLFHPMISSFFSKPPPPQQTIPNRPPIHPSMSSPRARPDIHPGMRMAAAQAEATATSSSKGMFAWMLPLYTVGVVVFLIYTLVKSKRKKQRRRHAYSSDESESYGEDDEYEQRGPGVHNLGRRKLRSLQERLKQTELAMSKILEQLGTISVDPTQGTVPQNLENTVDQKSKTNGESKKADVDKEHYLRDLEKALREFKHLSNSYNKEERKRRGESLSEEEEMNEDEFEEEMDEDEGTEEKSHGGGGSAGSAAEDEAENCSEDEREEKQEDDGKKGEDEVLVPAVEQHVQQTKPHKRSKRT

[4] = tested on: α3β4, α3β2, α4β4 and α4β2 vertebrate nAChRs; details: read-out: IC50 of reversible channel block; cited from earlier work

**Q.** Which “% change in membrane conductance (δG) normalized to the ACh δG” value [1] does the source give for `C/C(=N/c1ccc(/N=C/c2ccc(/C=N/c3ccc(/N=C(/C)N(C)C)cc3)cc2)cc1)N(C)C` [tribendimidine] here?
**A.** Its value is 0.0±0.0%.

**Q.** For `Cc1ccc(C[N+](C)(C)C)o1` [MFI, 5-methylfurmethiodide], which “normalized response (δG) to muscarinic agonists, control ACh = 100%” value (“normalized response (δG) … control ACh = 100%” below) [1] is on record?
**A.** The value was 4.0±0.6%.

**Q.** With `O=C1CCCN1CC#CCN1CCCC1` [oxotremorine] as the molecule, how does the “normalized response (δG) … control ACh = 100%” value [1] read?
**A.** Its value is 1.8±0.8%.

**Q.** What about the “response relative to ACh (rank order series of muscarinic agonists)” value (“response relative to ACh” for short) [2] of the same molecule?
**A.** The value was 61%.

**Q.** Which results are given for `Clc1ccc(C2CC3CCC2N3)cn1` (centres unmarked) [epibatidine]?
**A.** Emax at 100 µM [3]: 25 ± 1.5%; % change in membrane conductance (δG) normalized to the ACh δG [1]: 31.0±3.0%; Emax (Asu-EAT-2 nAChR; mean±SEM, n≥5): 77 ± 4.2%

**Q.** Which Emax at 100 µM [3] does the source give for `c1ccc([C@H]2CN3CCSC3=N2)cc1` [levamisole] here?
**A.** The Emax at 100 µM was 0%.

**Q.** And the Emax [1]?
**A.** Its Emax is 1.8 ± 0.61%.

**Q.** What about the “current response normalized to the control 100 μM ACh current” value (Asu-EAT-2 nAChR) of the same molecule?
**A.** Its value is “failed to activate the receptor”.

**Q.** What about the Emax (Asu-EAT-2 nAChR) of the same molecule?
**A.** The Emax was 0%.

**Q.** For `c1cncc([C@@H]2CCCCN2)c1` [anabasine], which Emax at 100 µM [3] is on record?
**A.** Its Emax at 100 µM is 0%.

**Q.** For `COC(=O)C1=CCCN(C)C1` [arecoline], which “normalized response (δG) … control ACh = 100%” value ([1]; in the presence of mecamylamine 30 μM) is on record?
**A.** Its value is 2.6±2.0%.

**Q.** What about the “response relative to ACh” value [2] of the same molecule?
**A.** Its value is 76%.

**Q.** For `C[N+]1(C)CCN(c2ccccc2)CC1` [DMPP], which “current response normalized to the control 100 μM ACh current (Imax)” value [3] is on record?
**A.** Its value is “failed to respond”.

**Q.** What about the Emax at 100 µM [3] of the same molecule?
**A.** Its Emax at 100 µM is 0%.

**Q.** What about the Emax [1] of the same molecule?
**A.** The Emax was 12 ± 2.9%.

**Q.** What about the Emax (Asu-EAT-2 nAChR; mean±SEM, n≥5) of the same molecule?
**A.** Its Emax is 6.6 ± 1.9%.

**Q.** With `CN1[C@@H]2CC[C@H]1C[C@@H](OC(=O)C(CO)c1ccccc1)C2` (some centres unmarked) [atropine] as the molecule, how does the IC50 [4] read?
**A.** The IC50 was 4 to 10 µM.

**Q.** For `C[N+](C)(C)CCOC(N)=O` [carbachol], which “Hill slope (nH)” value [3] is on record?
**A.** The value was 2.1±0.3.

**Q.** What about the Emax at 100 µM [3] of the same molecule?
**A.** Its Emax at 100 µM is 37 ± 3.4%.

**Q.** What about the EC50 [3] of the same molecule?
**A.** Its EC50 is 398 µM.

**Q.** And the “response relative to ACh” value [2]?
**A.** Its value is 80%.

**Q.** With `CC(=O)OC(C)C[N+](C)(C)C` (centres unmarked) [methacholine] as the molecule, how does the “current response normalized to the control 100 μM ACh current (Imax)” value [3] read?
**A.** Its value is 73 ± 5.3%.

**Q.** What about the “Hill slope (nH)” value [3] of the same molecule?
**A.** Its value is 3.5±1.3.

**Q.** What about the Emax at 100 µM [3] of the same molecule?
**A.** Its Emax at 100 µM is 73 ± 5.3%.

**Q.** What about the EC50 [3] of the same molecule?
**A.** The EC50 was 79.4 µM.

**Q.** For `CN1[C@@H](CC(=O)c2ccccc2)CCC[C@H]1C[C@H](O)c1ccccc1` [lobeline], which Emax at 100 µM [3] is on record?
**A.** Its Emax at 100 µM is 0%.

**Q.** For `CCN1C[C@]2(COC(=O)c3ccccc3N3C(=O)C[C@H](C)C3=O)CC[C@H](OC)[C@@]34[C@@H]5C[C@H]6[C@H](OC)[C@@H]5[C@](O)(C[C@@H]6OC)[C@@](O)([C@@H](OC)[C@H]23)[C@@H]14` [methyllycaconitine], which “% inhibition of 100 μM ACh membrane conductance (δG)” value [1] is on record?
**A.** The value was 62.6±3.7%.

**Q.** What about the “mode of antagonism of the pharyngeal ACh response” value [1] of the same molecule?
**A.** Its value is “non-competitive antagonists”.

**Q.** What about the “maximal response (δG) of ACh in the presence of antagonist” value [1] of the same molecule?
**A.** The value was 57.0±4.6 μS.

**Q.** With `C[N+](C)(C)CCO` [choline] as the molecule, how does the Emax [1] read?
**A.** Its Emax is 0%.

**Q.** What about the Emax (Asu-EAT-2 nAChR) of the same molecule?
**A.** Its Emax is 0%.

**Q.** Which results are given for `CN1C(=O)[C@]23C[C@H]4C(C)(C)[C@@]5(C[C@@]41CN2CC[C@@]3(C)O)C(=O)Nc1c5ccc2c1OC=CC(C)(C)O2` [paraherquamide]?
**A.** Imax of ACh concentration-response in the presence of antagonist ([3]; antagonist 30 μM): 40.2±2.7%; % inhibition of 100 μM ACh membrane conductance (δG) [1]: 37.2±8.7%; mode of antagonism of the pharyngeal ACh response [1]: non-competitive antagonists; maximal response (δG) of ACh in the presence of antagonist [1]: 87.7±5.7 μS

**Q.** For `c1cncc([C@@H]2CCCN2)c1` [nornicotine], which Emax at 100 µM [3] is on record?
**A.** Its Emax at 100 µM is 0%.

**Q.** Which results are given for `Cc1ccsc1/C=C/C1=NCCCN1C` [morantel]?
**A.** current response normalized to the control 100 μM ACh current (Imax) [3]: did not activate the receptor; Emax [1]: 0.3 ± 0.3%; Emax (Asu-EAT-2 nAChR; mean±SEM, n≥5): 0%
